“Also recorded” adds a separate entry of the source.

Series [1] deals with experimental autoimmune encephalomyelitis (EAE) model. Nature of the series: EAE clinical score in PLP-induced EAE mice. The series is classed as in vivo, SJL/J female mice. Particulars: for clinical score severity and clinical features (therapeutic effect in EAE mice model): regimen not specified. How it is done:
The basic experimental approaches to test the efficacy of the compounds in the EAE model were done using the methodologies developed in our laboratory. EAE disease was induced in 4-6 weeks SJL female mice using 200 μg PLP peptide emulsified in complete Freund's adjuvant (CFA) containing 1 mg heat-killed Mycobacterium tuberculosis, injected at four sites in the right and left flanks. Following each injection, 200 ng of Bordetella pertussis toxin PTX) was injected intraperitoneal (IP) on days 0 and 2 post PLP immunization. The mice were divided into several groups: 1. prevention, where they were treated with 50 μg/mouse of SIMR1281 or SIMR1707 starting 15 days before the induction of EAE and continued […]. 2. Prophylactic, mice were treated with 50 μg/moues of SIMR1281 or SIMR1707 starting from day of EAE induction and continued every three days until termination (usually between 40-45 days). 3. Therapeutic, where mice were treated with 50 μg of SIMR1281 or SIMR1707 from the days of disease development (usually between 8-10 post EAE induction), and continued every three days until termination. The procedure for these regimens is shown below: • A. Prophylactic regimen: Mice were injected IP with 50 μg/mouse every 3 days since the initiation of the disease and until termination.
[drawing 3] • B. Therapeutic regimen: Mice were injected IP with 50 μg/mouse every 3 days at the appearance of symptoms (usually […]) days after initiation of the disease and until termination.
[drawing 4] • C. Prevention: The mice were injected IP with 50 μg/mouse of SIMR 1707 or 1281 at days −15, −10, −5, and 0. EAE was induced at day 0.
(§1) Untreated mice or mice injected with DMSO as a vehicle were used. For positive group, the results regarding the effects of RTX were used. During the course of the EAE disease, the animals were independently observed and monitored daily, and the EAE clinical score was recorded according to the following scoring scheme: 0=no clinical disease, 1=tail flaccidity, 2=hind limb weakness, 3=hind limb paralysis, 4=forelimb paralysis, and 5=moribund or death. The body weight changes were also monitored for all the mice groups. After the termination of the experiment, the mice were sacrificed, and their brains were collected for histological and immunohistochemistry analysis.

The subject of series [2] is demyelination in the cerebellum. Description: Luxol fast blue staining of cerebellum (demyelination / re-myelination). The series is classed as in vivo, SJL/J female mice. The following applies: 50 μg/mouse IP (FIG. 9). The procedure: as §1
FIG. 8 illustrates mouse brain cerebellum (rectangles or squares) was stained with GFAP to determine the degree of glial cell activation. […] Finally, we stained the mice brain cerebellum with Luxol fast blue to determine the degree of re-myelination after treatment with the two drugs.

For series [3], the system named is perivascular inflammatory infiltrates in cerebellum. Description: H&E staining of brain cerebellum (degree of inflammation). The following applies: 50 μg/mouse IP (FIG. 6). The format is in vivo, SJL/J female mice. The procedure:
as §1
(§2) FIG. 5 illustrates the weights of mice measured every day through the course of the experiments, i.e. up to 45 days after the initiation of the disease. FIGS. 5A, 5B and 5C, show the weights of mice after prophylactic, therapeutic or prevention regimen, respectively. Significant values shown in the right panels compared the mice body weights among the various groups. To corroborate the results of clinical scores with histological evaluation, we performed immunohistochemistry analysis to evaluate the effects of the two drugs on the inflammation taking place in the brain. First, we stained the brain cerebellum of these mice with H&E to evaluate the degree of inflammation.

The nature of series [4]: Body weight of EAE mice during treatment. The following applies: prophylactic, therapeutic or prevention regimen, measured every day up to 45 days (FIG. 5). The series is classed as in vivo. How it is done: as §1, §2
Another series deals with GFAP. Description: GFAP staining of cerebellum (glial cell activation, gliosis). The format is in vivo, SJL/J female mice. Particulars: 50 μg/mouse IP (FIG. 8). The procedure:
as §1
FIG. 7 illustrates infiltration of CD3^+ lymphocytes into the cerebellum of mice brains (rectangles or squares). […] To further investigate the effects of the drugs on brain inflammation, we examined the activation of glial cells by staining with GFAP which determines the degree of gliosis.

Series [5] relates to CD3^+ T lymphocyte infiltration into the cerebellum. Description: Anti-CD3 staining of cerebellum. The series is classed as in vivo, SJL/J female mice. The following applies: 50 μg/mouse IP (FIG. 7). The procedure:
as §1
FIG. 6 illustrates H&E staining of mice cerebellum (rectangles) showing highly inflamed lesions in EAE untreated and vehicle treated mice (arrows). […] Further, infiltration of CD3 cells into the mice cerebellum stained with anti-CD3 was performed.

[6] abbreviates: prevention regimen, 50 μg/mouse IP on days −15, −10, −5 and 0, EAE induced at day 0, vs vehicle or untreated (FIG. 3C).
Setting [7] is: prophylactic regimen, 50 μg/mouse IP every 3 days from EAE induction until termination, vs vehicle or untreated (FIG. 3A).
Where [8] appears, read: therapeutic regimen, 50 μg/mouse IP every 3 days from appearance of symptoms until termination, vs vehicle or untreated (FIG. 3B).

With `CC1(C)[C@H]2COc3ccc4ccccc4c3[C@H]2N=C2SC(c3ccccc3)=C(c3ccccc3)N21` [SIMR-1281, (8aS,14aS)-9,9-dimethyl-11,12-diphenyl-8a,14a-dihydro-8H,9H-benzo[5,6]chromeno[4,3-d]thiazolo[3,2-a]pyrimidine], in series [1], the “clinical score severity and clinical features (therapeutic effect in EAE mice model)” value is given as “significant reduction”. Also, the EAE clinical scores result in series [1] (setting [6]), in series [1] (setting [7]) and in series [1] (setting [8]) was “significant decrease” throughout. Moreover, the “demyelination / re-myelination (Luxol fast blue)” value in series [2] (prevention regimen), in series [2] (prophylactic regimen) and in series [2] (therapeutic regimen) was “no evidence of demyelination” in each case. For the same compound, the “inflammation, perivascular inflammatory infiltrates (H&E)” value in series [3] (prevention regimen), in series [3] (prophylactic regimen) and in series [3] (therapeutic regimen) was “no evidence of any perivascular inflammatory infiltrates; also recorded: no inflammation” in each case. The body weight entry in series [4] was “significantly increased the weights”. In addition, the “GFAP expression / gliosis” value in the series on GFAP (prevention regimen), in the series on GFAP (prophylactic regimen) and in the series on GFAP (therapeutic regimen) was “significant reduction; also recorded: so robust in preventing gliosis” in each case. Besides, the “CD3^+ T lymphocyte infiltration” value in series [5] (prevention regimen), in series [5] (prophylactic regimen) and in series [5] (therapeutic regimen) was “no evidence of CD3^+ T lymphocyte infiltration; also recorded: no CD3^+ T cell accumulation” each time.
Turning to `C[C@]12CCC(=O)C[C@H]1N1CCc3c([nH]c4ccccc34)[C@@H]1CO2` [SIMR-1707], in series [1], the “clinical score severity and clinical features (therapeutic effect in EAE mice model)” value was “significant reduction”. In addition, the EAE clinical scores result is reported as “not when used in the prevention regimen” in series [1] (setting [6]), “effective” in series [1] (setting [7]) and “effective” in series [1] (setting [8]). The “demyelination / re-myelination (Luxol fast blue)” value in series [2] (prevention regimen) is given as “partial improvement in re-myelination; also recorded: partial improvement in demyelination”; in series [2] (prophylactic regimen), “partial improvement in re-myelination; also recorded: partial improvement in demyelination”; in series [2] (therapeutic regimen), “significant reduction in the demyelination areas”. In addition, the results for the “inflammation, perivascular inflammatory infiltrates (H&E)” value in series [3] (prevention regimen), in series [3] (prophylactic regimen) and in series [3] (therapeutic regimen) were “minimal evidence of perivascular inflammatory infiltrates; also recorded: less inflammation”, “minimal evidence of perivascular inflammatory infiltrates; also recorded: less inflammation” and “no evidence of perivascular inflammatory infiltrates; also recorded: completely disappeared”, respectively. In series [4], the body weight entry is recorded as “significantly increased the weights”. Moreover, the figures for the “GFAP expression / gliosis” value in the series on GFAP (prevention regimen), with GFAP (prophylactic regimen) and with GFAP (therapeutic regimen) were “only partial reduction; also recorded: Less gliosis”, “significant reduction; also recorded: no obvious glial cells activation” and “significant reduction; also recorded: no obvious glial cells activation”, respectively. The “CD3^+ T lymphocyte infiltration” value was “less infiltration of CD3^+ T cells” in series [5] (prevention regimen), “partially reduce; also recorded: less infiltration of CD3^+ T cells” in series [5] (prophylactic regimen) and “no evidence of any CD3^+ T lymphocyte infiltration; also recorded: completely disappeared” in series [5] (therapeutic regimen).
As to Rituximab [RTX, reference compound], the EAE clinical scores result in series [1] (RTX as prophylactic drug, IP from day 0 every three days until termination (FIG. 4A)) was “did not exert significant differences”; in series [1] (RTX as therapeutic drug, 5 μg/mouse IP from first sign of disease every three days until termination (FIG. 4B)), “did not exert significant differences”; in series [1] (RTX prevention regimen, IP on days −15, −10, −5 and 0, particularly at high concentration, 20 μg/mouse (FIG. 4C)), “only worked in the prevention regimen”.
